Read-outs that look alike come from different tables or passages of the source. Starred links: 1 amine or outer side, 2 acyl side, 3 side chain; linkers in the order of their positions; H or OH if unused. Non-standard residues stand in square brackets, D forms with d. Residues, ends and D or L forms follow the SMILES beside them. X1 = O=C([C@H](Cc1ccc(NP(=O)(O)O)cc1)N[*:1])[*:2]
Legend:
pAcFRS.1.t1 synthetase = target: T1, pAcFRS.1.t1 synthetase (Methanocaldococcus jannaschii, UniProt Q57834, A167D/D158G/D286R/I159C/L162R/R257G/Y32L); test: In vitro tRNA charging assay; assay type: biochemical; conditions: purified pAcFRS.1.t1, 1 mM amino acid
T1 construct: His; made in house
Description: The pAcFRS.1.t1 synthetase was His-purified, and stored in 50 mM KCl, 50 mM HEPES-KOH at pH 7.5, 10% glycerol. The cognate tRNA was in vitro transcribed (IVT) from dsDNA template containing a T7 promoter, hammerhead ribozyme and tRNA, as described previously(Fechter et al., 1998). The IVT buffer consists of 40 mM Tris-HCl at pH8.0, 0.01% Triton X, 30 mM MgCl2, 2 mM Spermidine, 1 mM DTT. For a 100 μL reaction, 4 mM riboNTPs (N0466S, NEB), 100U T7 (M0251S, NEB) and 1-2 μM dsDNA template were added. The reaction was incubated at 37° C. for 3 h. Afterwards, the sample was diluted 5× with reaction buffer, and heated to 65C for 1 h to promote hammerhead cleavage. After a phenol:chloroform extraction, the cleaved tRNA was separated from other fragments using a TBE-Urea gel. Finally, the tRNA was refolded by slowly cooling the sample from 95° C. to r.t. At 65° C., MgCl2 was added to a final concentration of 10 mM.
aaRS specificity was measured using in vitro charging. The reaction composition was 150 mM HEPES-KOH at pH 7.5, 10 mM MgCl2, 2.5 mM DTT, 0.2 mg/mL BSA, 2 mM ATP, 1 mM amino acid, 500 nM aaRS and 750 nM tRNA. The reactions were incubated at 37° C. for 30 min. Afterwards, they were quenched using loading buffer (0.1 M sodium acetate pH 5.0, 8 M urea, 0.05% bromophenol blue, 0.05% xylene cyanol FF). The samples were then analyzed on an acid-urea PAGE gel (8 M urea, 0.1 M sodium acetate at pH 5.2) (Varshney et al., 1991), that was prerun in running buffer (0.1 M NaOAc at pH 5.2) for 20 min at 13 W. After sample loading, the gel was run at a constant 13 W for 20 h. The tRNA was visualized with ethidium bromide staining.

Src SH2 domain = Src SH2 domain (Homo sapiens, UniProt P12931); test: Fluorescence polarization assay, direct binding and competition with FITC-pTyrEEI
Description: They were then induced with 1 mM IPTG and grown overnight. Cells were pelleted prior to freezing at −80° C. Pellets were resuspended in lysis buffer (50 mM Tris, pH 8.0, 500 mM NaCl, 0.5 mM EDTA, 0.5 mM EGTA, 10% glycerol) and then sonicated. Clarified lysate was incubated with Glutathione Sepharose 4B resin, washed (50 mM Tris, pH 8.0, 50 mM NaCl, 10% glycerol) and eluted from resin in elution buffer (20 mM reduced glutathione, 50 mM Tris, pH 8.0, 50 mM NaCl, 10% glycerol, pH 8.0). […] Protein was stored at −80° C. […] Kd was established using one-site binding model in GraphPad Prism version 7 for Mac (GraphPad Software, La Jolla, CA, USA). Unlabeled peptides were diluted to 100 μM in assay buffer. […] A full-dissociation control was established with 10 nM peptide in assay buffer. […] EC50 for percent inhibition was estimated by plotting log10[agonist] vs. response and fitting a four-parameter variable slope fit in GraphPad Prism.

[1] = Reduction of pAzF to pAF under purification pH and temperatures (HRMS); assay type: physicochemical; conditions: pH 6.6, 7.2, 7.9; 4, 20, 34 or 80° C.
Excerpt: High-resolution mass spectrometry (HRMS) data was collected using an Agilent iFunnel 6550 Quadrupole Time-Of-Flight (QTOF) MS with an electrospray ionization (ESI) source, coupled to an Agilent Infinity 1290 ultra-high-performance liquid chromatography (UHPLC) system with an Agilent Eclipse Plus C18 1.8 μm, 4.6×50 mm column. Solvents used were (solvent A) water 0.1% formic acid and (solvent B) CH3CN 0.1% formic acid. Mass spectra were gathered using Dual Agilent Jet Stream (AJS) ESI in positive mode. The mass range was set from 110 to 1700 m/z with a scan speed of 3 scan/second. The capillary and nozzle voltages were set to 5500 and 2000 V, respectively. […] MS data were acquired with MassHunter Workstation Data Acquistion (Version B.06.01, Agilent Technologies) and analyzed using MassHunter Qualitative Analysis (Version B.07.00, Agilent Technologies). Protein quantification was performed using peptide standards with the same sequence as the digested peptides, or based on calibration curves produced using dilutions series of peptide(1TAG)-GFP.
Experiments were designed to assess if reduction of pAzF residues occurs during protein purification or MS analysis. Experiments evaluated if pAzF is reduced over a range of pH (6.6, 7.2, 7.9) and temperatures (4, 20, 34, or 80° C.) used during sample purification, and found minimal (<1%) reduction to pAF under all conditions. […]

T1 sequence (Q57834 whole entry Y32L/D158G/I159C/L162R/A167D/R257G/D286R): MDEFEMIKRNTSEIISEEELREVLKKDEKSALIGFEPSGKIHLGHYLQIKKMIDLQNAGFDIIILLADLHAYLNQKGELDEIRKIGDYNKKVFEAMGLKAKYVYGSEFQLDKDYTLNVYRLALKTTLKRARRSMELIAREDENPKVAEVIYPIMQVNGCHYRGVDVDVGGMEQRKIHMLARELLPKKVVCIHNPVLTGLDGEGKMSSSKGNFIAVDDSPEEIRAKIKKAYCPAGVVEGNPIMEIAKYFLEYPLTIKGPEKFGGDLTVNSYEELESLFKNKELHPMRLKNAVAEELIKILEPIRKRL

Nc1ccc(C[C@H](N)C(=O)O)cc1 [pAF, para-amino-phenylalanine]
charging onto the cognate tRNA (pAcFRS.1.t1 synthetase): no charging

CC[C@H](C)[C@H](NC(=O)[C@@H]1CCCN1C(=O)[C@@H](NC(=O)[C@H](CCC(=O)O)NC(=O)[C@H](CCC(=O)O)NC(=O)[C@H](Cc1ccc(NP(=O)(O)O)cc1)NC(=O)[C@H](CCC(N)=O)NC(=O)[C@@H]1CCCN1C(=O)[C@@H](N)CCC(=O)O)[C@@H](C)CC)C(=O)N[C@@H](Cc1ccc(O)cc1)C(=O)N[C@@H](CC(C)C)C(=O)O [pnY peptide] (H-EPQ[X1]EEIPIYL-OH; N-terminus and C-terminus assumed)
EC50 (Src SH2 domain): 12.8 µM
Decrease in binding affinity with SH2 (Src SH2 domain; pnY peptide EC50 compared with […], Src SH2): 17 fold

[N-]=[N+]=Nc1ccc(C[C@H](N)C(=O)O)cc1 [pAzF, para-azido-phenylalanine]
reduction to pAF [1]: < 1%
charging onto the cognate tRNA (pAcFRS.1.t1 synthetase): charged

EPQYEEIPIYL [Tyr peptide, reference compound]
EC50 (Src SH2 domain; competition with FITC-labeled pTyr peptide): No increase in unbound FITC-pTyr peptide

N[C@@H](Cc1ccc(O)cc1)C(=O)O [tyrosine]
charging onto the cognate tRNA (pAcFRS.1.t1 synthetase): no charging

Reference: US20250270289A1, “SEQUENCE-DEFINED POLYMERS WITH ONE OR MORE AZIDES, METHODS OF MAKING, AND METHODS OF USE THEREOF” (Yale University, priority 2021, published 2025)
